How the values were obtained:
Type in all cases: in vivo
[1] = test system: Ipomea; assay: Pre-emergence herbicidal activity (Example 31); details: after three weeks
Procedure, shortened: (§1)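 Ratings run from 0 (0–25% damage) to 3 (75–99% kill), with 3+ meaning complete kill, assessed visually three weeks after spraying. Treatment was applied to soil right after sowing, before germination was triggered by overhead watering in the glasshouse.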

[2] = test system: Japanese millet; assay: Pre-emergence herbicidal activity (Example 31); details: after three weeks
Procedure, shortened: as §1

[3] = test system: Mustard; assay: Pre-emergence herbicidal activity (Example 31); details: after three weeks
Procedure, shortened: as §1

[4] = test system: Sunflower; assay: Pre-emergence herbicidal activity (Example 31); details: after three weeks
Procedure, shortened: as §1

[5] = test system: Wheat; assay: Post-emergence herbicidal activity (Example 32); parameters: key: 0-3 scale: 0 = 0-25% damage, 3 = 75-99% kill, 3+ = 100% kill; details: 3 weeks after spraying
Procedure, shortened: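 Compounds were formulated as emulsifiable concentrates in toluene with surfactants (oils, waxy solids) or ball-milled aqueous suspensions (crystalline solids), then diluted with water. Glasshouse seedlings in soil, grown to about 10 to 12.5 cm, were sprayed. Damage was scored visually after 3 weeks against untreated controls on a 0–3 scale (3+ = 100% kill).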

[6] = test system: Rice; assay: Pre-emergence herbicidal test, fibre trays (Example 33); details: 2.0 kg/ha, after 21 days
Procedure, shortened: (§2)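 Herbicidal damage is rated relative to untreated plants on a 0 (0–20%) to 5 (complete kill) scale. Young potted plants are sprayed and assessed at 14 days; seeds sown in fibre trays receive a soil-surface spray under a thin fresh soil layer and are assessed at 21 days.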

[7] = test system: Cotton; assay: as above; details: 2.0 kg/ha, after 21 days
Procedure, shortened: as §2

[8] = test system: Ipomea purpurea; assay: as above; details: 2.0 kg/ha, after 21 days
Procedure, shortened: as §2

[9] = test system: Rape; assay: as above; details: 2.0 kg/ha, after 21 days
Procedure, shortened: as §2

[10] = test system: Senecio vulgaris; assay: as above; details: 2.0 kg/ha, after 21 days
Procedure, shortened: as §2

[11] = test system: Soy bean; assay: as above; details: 2.0 kg/ha, after 21 days
Procedure, shortened: as §2

[12] = test system: Sugar beet; assay: as above; details: 2.0 kg/ha, after 21 days
Procedure, shortened: as §2

[13] = test system: Winter wheat; assay: as above; details: 2.0 kg/ha, after 21 days
Procedure, shortened: as §2

[14] = test system: Maize; assay: Post-emergence herbicidal test, young pot plants (Example 33); details: 2.0 kg/ha, after 14 days
Procedure, shortened: as §2

[15] = test system: Rice; assay: as above; details: 2.0 kg/ha, after 14 days
Procedure, shortened: as §2

[16] = test system: Winter wheat; assay: as above; parameters: key: 0 = 0-20% damage, 5 = complete kill, vs untreated control; details: 2.0 kg/ha, after 14 days
Procedure, shortened: as §2

[17] = test system: Amaranthus retroflexus; assay: as above; details: 2.0 kg/ha, after 14 days
Procedure, shortened: as §2

[18] = test system: Chenopodium album; assay: as above; details: 2.0 kg/ha, after 14 days
Procedure, shortened: as §2

[19] = test system: Cotton; assay: as above; details: 2.0 kg/ha, after 14 days
Procedure, shortened: as §2

[20] = test system: Ipomea purpurea; assay: as above; details: 2.0 kg/ha, after 14 days
Procedure, shortened: as §2

[21] = test system: Soy bean; assay: as above; details: 2.0 kg/ha, after 14 days
Procedure, shortened: as §2

[22] = test system: Sugar beet; assay: as above; details: 2.0 kg/ha, after 14 days
Procedure, shortened: as §2

C#CCN(c1ccc(OC(C)C(=O)OC)cc1)c1ccc(C(F)(F)F)cc1[N+](=O)[O-] (stereo not drawn) [Compound 81]
damage to plants, Ip ([1]; 1 kg/ha): 0 (0 represents from 0 to 25% damage)
damage to plants, Ip ([1]; 5 kg/ha): 0 (0 represents from 0 to 25% damage)
damage to plants, Jm ([2]; 1 kg/ha): 3+ (3+ represents 100% kill)
damage to plants, Jm ([2]; 5 kg/ha): 3+ (3+ represents 100% kill)
damage to plants, Ms ([3]; 1 kg/ha): 0 (0 represents from 0 to 25% damage)
damage to plants, Ms ([3]; 5 kg/ha): 0 (0 represents from 0 to 25% damage)
damage to plants, Sf ([4]; 1 kg/ha): 0 (0 represents from 0 to 25% damage)
damage to plants, Sf ([4]; 5 kg/ha): 0 (0 represents from 0 to 25% damage)
damage to plants, Wh ([5]; 1 kg/ha): 2
damage to plants, Wh ([5]; 5 kg/ha): 3 (3 represents 75 to 99% kill)
herbicidal damage, Rc [6]: 4
herbicidal damage, Ct [7]: 0 (0 is 0 to 20% damage)
herbicidal damage, Ip [8]: 0 (0 is 0 to 20% damage)
herbicidal damage, Rp [9]: 0 (0 is 0 to 20% damage)
herbicidal damage, Sn [10]: 0 (0 is 0 to 20% damage)
herbicidal damage, Sy [11]: 0 (0 is 0 to 20% damage)
herbicidal damage, Sb [12]: 0 (0 is 0 to 20% damage)
herbicidal damage, Ww [13]: 4
damage to test plants, Mz [14]: 4
damage to test plants, Rc [15]: 4
damage to test plants, Ww [16]: 4
damage to test plants, Am [17]: 0 (0 is 0 to 20% damage)
damage to test plants, Ca [18]: 0 (0 is 0 to 20% damage)
damage to test plants, Ct [19]: 0 (0 is 0 to 20% damage)
damage to test plants, Ip [20]: 0 (0 is 0 to 20% damage)
damage to test plants, Sy [21]: 0 (0 is 0 to 20% damage)
damage to test plants, Sb [22]: 3
